Values after ≈ are worked out from the molar mass of the structure shown. Where only a bound is given, the exact number is not on record here.

Series [1] can be described thus: Metabolic stability in human liver microsomes (HLM). The series is classed as in vitro ADME. The settings on record: n = 1 or average (n = 2-3). Here is the method: Metabolic stability in HLM was measured as described in J Comput Aided Mol Des 2015, 29, 795.
Background: Liver microsomes are a subcellular fraction often used to study metabolism.

The test system of series [2] is Rat Hepatocytes (rHep). In words: Metabolic stability in rat hepatocytes (rHep). The series is classed as in vitro ADME. To be noted: n = 1 or geometric mean (n = 2-3). Here is the method: Metabolic stability in rat hepatocytes was measured as described in J Comput Aided Mol Des 2015, 29, 795.
Series [3] in a line: Kinetic solubility. Format: physicochemical. The settings on record: kinetic from dmso stock, n = 1 or average (n = 2-4). Here is the method:
Kinetic solubility was measured as described in Comput Aided Mol Des 2015, 29, 795.

Series [4] concerns the target T1, hFAP (M39-A757) (Homo sapiens, UniProt Q12884).
T1 sequence (Q12884 39-757): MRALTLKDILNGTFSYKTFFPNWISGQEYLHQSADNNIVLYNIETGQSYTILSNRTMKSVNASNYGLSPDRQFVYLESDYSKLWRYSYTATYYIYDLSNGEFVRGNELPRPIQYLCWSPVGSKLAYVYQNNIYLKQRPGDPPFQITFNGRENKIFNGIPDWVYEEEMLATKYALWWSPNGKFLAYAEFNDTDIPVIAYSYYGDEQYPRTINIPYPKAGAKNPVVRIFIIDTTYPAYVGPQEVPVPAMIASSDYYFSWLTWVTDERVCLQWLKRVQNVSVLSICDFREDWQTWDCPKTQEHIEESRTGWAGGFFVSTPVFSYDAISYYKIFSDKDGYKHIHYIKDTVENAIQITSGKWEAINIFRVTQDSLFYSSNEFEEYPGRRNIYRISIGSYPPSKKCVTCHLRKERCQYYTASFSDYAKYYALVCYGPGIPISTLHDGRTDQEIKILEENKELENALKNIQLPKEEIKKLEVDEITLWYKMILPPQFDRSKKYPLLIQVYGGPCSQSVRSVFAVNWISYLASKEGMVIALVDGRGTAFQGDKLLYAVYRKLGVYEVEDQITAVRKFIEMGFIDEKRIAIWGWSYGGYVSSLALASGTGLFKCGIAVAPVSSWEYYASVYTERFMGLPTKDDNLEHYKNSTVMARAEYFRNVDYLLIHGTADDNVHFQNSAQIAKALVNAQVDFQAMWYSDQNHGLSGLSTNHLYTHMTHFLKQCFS
In words: biochemical.

Series [5] deals with T2, Prolyl endopeptidase, Prolyl Oligopeptidase (hPREP) (Homo sapiens, UniProt P48147).
T2 sequence (P48147 1-710): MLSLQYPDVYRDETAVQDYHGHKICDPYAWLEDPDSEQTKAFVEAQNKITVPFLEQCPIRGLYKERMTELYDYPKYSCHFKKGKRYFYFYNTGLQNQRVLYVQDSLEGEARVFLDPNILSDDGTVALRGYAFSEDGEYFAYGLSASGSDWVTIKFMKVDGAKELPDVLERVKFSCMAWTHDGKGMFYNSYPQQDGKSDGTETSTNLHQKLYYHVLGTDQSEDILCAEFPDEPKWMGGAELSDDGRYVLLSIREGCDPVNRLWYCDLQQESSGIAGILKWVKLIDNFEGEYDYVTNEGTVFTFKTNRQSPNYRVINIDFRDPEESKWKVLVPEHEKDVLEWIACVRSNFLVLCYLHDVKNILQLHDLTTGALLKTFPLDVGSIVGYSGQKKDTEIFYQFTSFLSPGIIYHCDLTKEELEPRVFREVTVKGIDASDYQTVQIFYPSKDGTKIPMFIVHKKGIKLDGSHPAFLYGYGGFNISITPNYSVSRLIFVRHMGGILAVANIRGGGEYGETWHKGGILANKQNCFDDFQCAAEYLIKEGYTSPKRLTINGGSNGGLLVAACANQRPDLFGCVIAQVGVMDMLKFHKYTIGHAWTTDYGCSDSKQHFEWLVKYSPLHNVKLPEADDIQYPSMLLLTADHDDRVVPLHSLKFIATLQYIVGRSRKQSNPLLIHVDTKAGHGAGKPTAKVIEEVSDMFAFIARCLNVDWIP
In words: biochemical.

For series [6], the target named is T3, hFAP (Homo sapiens, UniProt Q12884).
T3 sequence (Q12884 38-760): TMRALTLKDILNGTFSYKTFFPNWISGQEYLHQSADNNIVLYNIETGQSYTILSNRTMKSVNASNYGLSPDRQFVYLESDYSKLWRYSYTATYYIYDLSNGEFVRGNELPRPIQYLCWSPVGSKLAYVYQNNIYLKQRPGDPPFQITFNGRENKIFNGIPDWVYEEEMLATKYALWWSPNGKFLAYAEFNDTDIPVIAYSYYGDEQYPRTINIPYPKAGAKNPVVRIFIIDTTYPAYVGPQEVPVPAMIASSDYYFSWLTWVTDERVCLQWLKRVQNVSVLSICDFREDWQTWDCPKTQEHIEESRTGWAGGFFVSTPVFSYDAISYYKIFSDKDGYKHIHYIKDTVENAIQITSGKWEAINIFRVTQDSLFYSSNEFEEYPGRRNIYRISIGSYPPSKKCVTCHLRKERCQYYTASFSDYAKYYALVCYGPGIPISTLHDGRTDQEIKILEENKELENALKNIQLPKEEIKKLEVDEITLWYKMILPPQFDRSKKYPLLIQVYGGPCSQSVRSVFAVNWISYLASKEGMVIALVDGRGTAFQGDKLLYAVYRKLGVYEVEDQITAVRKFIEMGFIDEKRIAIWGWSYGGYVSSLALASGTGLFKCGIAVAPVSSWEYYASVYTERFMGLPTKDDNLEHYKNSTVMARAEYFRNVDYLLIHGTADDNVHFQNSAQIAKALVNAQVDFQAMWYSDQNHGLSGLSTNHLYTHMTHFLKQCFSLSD
Put plainly: biochemical.
Method: 384 low volume black plates (Greiner #784076) were used. 4 μL, 0.48 nM enzyme solution (100 mM Tris HCl, 100 mM NaCl, 0.05% Chaps, pH 7.4) was added to 40 nL compounds (in DMSO) at 10 CR, 3 fold dilution series from 50 μM FAC. Plates were incubated for 15 min at rt in dark. 4 μL, 40 μM substrate solution (100 mM Tris HCl, 100 mM NaCl, 0.05% Chaps, pH 7.4) was added to each well. Plates were centrifuged at 1000 rpm and incubated for 30 min at rt in dark. The plates were read on a PHERAstar® reader with excitation 340 nm and emission 460 nm. Data were analyzed in Genedata Screener®. IC50 values were determined by plotting % inhibition versus log compound concentration and using a one site dose response model.
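For Kd in this document: surface plasmon resonance direct binding to hFAP amine-coupled on a sensor chip, rising compound concentrations by single cycle kinetics, Kd from global fit of interaction models.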

As a reminder, the microsomal CLint is the capacity of the preparation to metabolise the compound, expressed as a volume cleared per time. Higher therefore signals rapid turnover. One may read the solubility as the dissolved amount per volume that the medium holds. Broadly, the Kd is the equilibrium constant for the complex coming apart. Read a low Kd as tighter binding. Broadly, the IC50 is the midpoint of a concentration-inhibition curve. Read a high IC50 as weaker potency. `N#C[C@@H]1CSCN1C(=O)CNC(=O)c1ccnc2ccc(OCC(F)F)cc12` [Example 2, (R)—N-(2-(4-Cyanothiazolidin-3-yl)-2-oxoethyl)-6-(2,2-difluoroethoxy)quinoline-4-carboxamide] displayed an intrinsic metabolic clearance (microsomal CLint) in series [1] of 36 µL/min/mg. The “rHeps CLint” value in series [2] was 5.9 μL/min/1E6. Besides, the concentration in solution in series [3] (solubility) was 490 µM (≈ 199 µg/mL). Also, binding in series [4] was put at a Kd of 0.052 nM. Half-maximal inhibition in series [5] (IC50) was put at 190 nM.
The corresponding values for `Cc1cc(C2(c3ccc4nccc(C(=O)NCC(=O)N5CSC[C@H]5C#N)c4c3)CC2)no1` [Example 45, (R)—N-(2-(4-Cyanothiazolidin-3-yl)-2-oxoethyl)-6-(1-(5-methylisoxazol-3-yl)cyclopropyl)quinoline-4-carboxamide] are 70 µL/min/mg, 21 μL/min/1E6, 250 µM (≈ 112 µg/mL), 0.13 nM and 150 nM.
As for `N#C[C@@H]1CSCN1C(=O)CNC(=O)c1ccnc2ccc(C3CC3)cc12` [Example 77, (R)—N-(2-(4-Cyanothiazolidin-3-yl)-2-oxoethyl)-6-cyclopropylquinoline-4-carboxamide], the intrinsic clearance (microsomal CLint) in series [1] worked out at 58 µL/min/mg. The “rHeps CLint” value in series [2] worked out at 44 μL/min/1E6. In addition, the concentration in solution in series [3] (solubility) was 470 µM (≈ 172 µg/mL). Also, the values for the IC50 in series [6] and in series [5] were 0.59 nM and 38 nM, respectively. Moreover, binding in series [4] was put at a Kd of 1.4 nM.
On to `N#C[C@@H]1CSCN1C(=O)CNC(=O)c1ccnc2ccc(C3CCOC3)cc12` (mixture of isomers) [Example 67, N-(2-((R)-4-Cyanothiazolidin-3-yl)-2-oxoethyl)-6-((RS)-tetrahydrofuran-3-yl)quinoline-4-carboxamide], for which the microsomal CLint in series [1] turned out to be 16 µL/min/mg. In series [2], the “rHeps CLint” value worked out at 11 μL/min/1E6. The compound further returned a solubility in series [3] of 880 µM (≈ 349 µg/mL). Moreover, the IC50 was determined as 0.3 nM in series [6] and 87 nM in series [5]. Besides, the Kd in series [4] amounted to 0.11 nM.
Consider `Cc1ccc(C2(c3ccc4nccc(C(=O)NCC(=O)N5CSC[C@H]5C#N)c4c3)CC2)cn1` [Example 43, (R)—N-(2-(4-Cyanothiazolidin-3-yl)-2-oxoethyl)-6-(1-(6-methylpyridin-3-yl)cyclopropyl)quinoline-4-carboxamide], for which, in series [1], the microsomal CLint is 100 µL/min/mg. In series [2], the “rHeps CLint” value came out at 78 μL/min/1E6. The compound also came in with a solubility in series [3] of 60 µM (≈ 27.5 µg/mL). Further, the IC50 in series [6] turned out to be 0.094 nM; in series [5], 370 nM. The compound further came in with a Kd in series [4] of 0.39 nM.
For the compound `Cc1cc(C(C)c2ccc3nccc(C(=O)NCC(=O)N4CSC[C@H]4C#N)c3c2)on1` (mixture of isomers) [Example 49, N-(2-((R)-4-Cyanothiazolidin-3-yl)-2-oxoethyl)-6-((RS)-1-(3-methylisoxazol-5-yl)ethyl)quinoline-4-carboxamide], the microsomal CLint in series [1] amounted to 46 µL/min/mg. Further, the “rHeps CLint” value in series [2] worked out at 24 μL/min/1E6. This compound also came in with a solubility in series [3] of 220 µM (≈ 95.8 µg/mL). For the same compound, in series [4], the Kd was 0.13 nM. This compound displayed a half-inhibitory concentration (IC50) in series [5] of 110 nM.
The corresponding values for `CC(c1ccc2nccc(C(=O)NCC(=O)N3CSC[C@H]3C#N)c2c1)c1ccc(Cl)cn1` (mixture of isomers) [Example 48, 6-((RS)-1-(5-Chloropyridin-2-yl)ethyl)-N-(2-((R)-4-cyanothiazolidin-3-yl)-2-oxoethyl)quinoline-4-carboxamide] are over 300 µL/min/mg, 27 μL/min/1E6, 240 µM (≈ 112 µg/mL), 0.12 nM and 240 nM.
The corresponding values for `N#C[C@@H]1CSCN1C(=O)CNC(=O)c1ccnc2ccc(C3(c4ccnc(C(F)(F)F)c4)CC3)cc12` [Example 13, (R)—N-(2-(4-Cyanothiazolidin-3-yl)-2-oxoethyl)-6-(1-(2-(trifluoromethyl)pyridin-4-yl)cyclopropyl)quinoline-4-carboxamide] are over 300 µL/min/mg, 140 μL/min/1E6, 78 µM (≈ 39.9 µg/mL), 0.12 nM and 460 nM.
With `COCCCOc1ccc(-c2ccc3nccc(C(=O)NCC(=O)N4CSC[C@H]4C#N)c3c2)cc1` [Example 72, (R)—N-(2-(4-Cyanothiazolidin-3-yl)-2-oxoethyl)-6-(4-(3-methoxy-propoxy)phenyl)quinoline-4-carboxamide], the microsomal CLint in series [1] is 63 µL/min/mg. For the same compound, the “rHeps CLint” value in series [2] is 18 μL/min/1E6. For the same compound, in series [3], the concentration in solution (solubility) was 14 µM (≈ 6.87 µg/mL). Further, the IC50 in series [6] was 0.2 nM; in series [5], 540 nM. The compound further registered a Kd in series [4] of 0.013 nM.
Take `N#C[C@@H]1CSCN1C(=O)CNC(=O)c1ccnc2ccc(CF)cc12` [Example 29, (R)—N-(2-(4-cyanothiazolidin-3-yl)-2-oxoethyl)-6-(fluoromethyl)-quinoline-4-carboxamide]: the microsomal CLint in series [1] amounted to 9.8 µL/min/mg. Besides, in series [2], the “rHeps CLint” value worked out at 12 μL/min/1E6. Also, the solubility in series [3] is over 1000 µM. In addition, the IC50 in series [6] came out at 0.52 nM; in series [5] it was 32 nM. This compound gave a Kd in series [4] of 1.4 nM.
In series [1], `CC1(c2ccc3nccc(C(=O)NCC(=O)N4CSC[C@H]4C#N)c3c2)CCOCC1` [Example 21, (R)—N-(2-(4-Cyanothiazolidin-3-yl)-2-oxoethyl)-6-(4-methyl-tetrahydro-2H-pyran-4-yl)quinoline-4-carboxamide] displayed an intrinsic metabolic clearance (microsomal CLint) of 100 µL/min/mg. For the same compound, in series [2], the “rHeps CLint” value is recorded as 7.9 μL/min/1E6. The compound further yielded a solubility in series [3] of 500 µM (≈ 212 µg/mL). In series [4], this compound came in with a Kd of 140 nM. Moreover, half-maximal inhibition in series [5] (IC50) required 8.3 nM.
On to `CC(c1ccnc(C(F)(F)F)c1)c1ccc2nccc(C(=O)NCC(=O)N3CSC[C@H]3C#N)c2c1` (mixture of isomers) [Example 52, N-(2-((R)-4-Cyanothiazolidin-3-yl)-2-oxoethyl)-6-((RS)-1-(2-(trifluoromethyl)pyridin-4-yl)ethyl)quinoline-4-carboxamide], for which the intrinsic metabolic clearance (microsomal CLint) in series [1] turned out to be 210 µL/min/mg. Moreover, the “rHeps CLint” value in series [2] is listed as 49 μL/min/1E6. The compound further came in with a solubility in series [3] of 120 µM (≈ 59.9 µg/mL). This compound showed a Kd in series [4] of 0.2 nM. Moreover, the IC50 in series [5] came to 320 nM.

The values above are taken from patent publication US20260070899A1, “N-(2-(4-CYANOTHIAZOLIDIN-3-YL)-2-OXOETHYL)-QUINOLINE-4-CARBOXAMIDES” (AstraZeneca AB, priority 2022, published 2026).
